Measurements: ChEMBL document CHEMBL1123575, “In search of the digitalis replacement” (J Med Chem, 1987)
Values joined by “and” are separate entries in the source; they are usually repeats but may differ in a detail not shown here. Identical values can stand only once.

Assays:
[1] = molecular target: Beta-1 adrenergic receptor (Homo sapiens) (UniProt P08588)
Description: Positive inotropic effects by direct or indirect beta-1 adrenergic receptor activation.

[2] = molecular target: T1, Phosphodiesterase; PDE3 & PDE4 (Homo sapiens) (UniProt P27815+Q14432+Q08499+Q07343+Q13370+Q08493); test: Inhibition of cAMP Phosphodiesterase enzyme.; format: protein assay
[3] = molecular target: Beta-1 adrenergic receptor (Homo sapiens) (UniProt P08588); test: Compound was tested for its inotropic effect by activation of beta-1 adrenergic receptor directly or indirectly; activity values are 70,71
[4] = Compound was evaluated for its inotropic activity by its ability to increase Myofibrillar Ca++ sensitivity.; format: functional
[5] = molecular target: T1, Phosphodiesterase; PDE3 & PDE4 (Homo sapiens); test: Compound was evaluated for its inotropic activity by the inhibition of cAMP Phosphodiesterase enzyme; format: protein assay
[6] = molecular target: Beta-1 adrenergic receptor (Homo sapiens) (UniProt P08588); test: Compound was tested for its inotropic effect by activation of beta-1 adrenergic receptor directly or indirectly; activity values are 73,75

Beta-1 adrenergic receptor (Homo sapiens), sequence (P08588 whole entry, looked up): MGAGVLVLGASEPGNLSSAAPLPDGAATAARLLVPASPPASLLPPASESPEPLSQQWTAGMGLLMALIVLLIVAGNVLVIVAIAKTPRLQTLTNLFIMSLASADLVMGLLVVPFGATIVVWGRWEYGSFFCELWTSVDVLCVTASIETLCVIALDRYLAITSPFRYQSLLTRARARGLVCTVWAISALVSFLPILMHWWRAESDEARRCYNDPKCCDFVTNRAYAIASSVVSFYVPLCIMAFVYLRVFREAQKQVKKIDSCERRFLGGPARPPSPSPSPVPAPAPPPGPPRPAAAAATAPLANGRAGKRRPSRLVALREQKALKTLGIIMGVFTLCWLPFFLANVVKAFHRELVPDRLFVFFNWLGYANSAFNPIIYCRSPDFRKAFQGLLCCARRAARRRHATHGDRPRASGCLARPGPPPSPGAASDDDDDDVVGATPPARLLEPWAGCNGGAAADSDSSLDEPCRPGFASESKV

| SMILES | Inotropic effect [1] | PDE inhibition [2] | also measured |
| --- | --- | --- | --- |
| C[C@H](CCc1ccc(O)cc1)NC[C@H](O)c1ccc(O)cc1 | 39 |  |  |
| COc1ccc2[nH]c(=O)nc(C)c2c1OC |  | 91 |  |
| COc1ccc(C(=O)N2CCN(c3ccc4c(c3)CCC(=O)N4)CC2)cc1OC |  | 87 |  |
| CCc1nc(O)ncc1-c1ccc(O)cc1 | 67 | 67 |  |
| O=C1CCC(c2ccc(-n3ccnc3)cc2)=NN1 | 78 | 76 |  |
| OC(CNCCC1c2ccccc2Oc2ccccc21)COc1ccccc1 (stereo not given) | 45 and 44 |  |  |
| O=C1CCC(c2ccc3c(c2)NC(=O)CC3)=NN1 |  | 83 |  |
| CNCCc1ccc(OC(=O)C(C)C)c(OC(=O)C(C)C)c1 | 38 |  |  |
| CCc1[nH]c(=O)[nH]c1C(=O)c1ccncc1 |  | 68 | Inotropic effect [3]: 71 |
| Cc1nc(O)c(N)cc1-c1ccccc1 |  | 62 | Mechanistic reference [4]: 62 |
| CN(C(=O)CCCOc1ccc2c(c1)CN1CC(=O)NC1=N2)C1CCCCC1 |  | 90 |  |
| Oc1ccc(CCNCCCCCCNCCc2ccccc2)cc1O | 36 |  |  |
| CCCCNC(=O)NC1CCN(c2ncnc3cc(OC)c(OC)cc23)CC1 | 85 | 84 |  |
| C[C@@H]1C(=O)NC2=Nc3cccc(Cl)c3CN21 | 89 | 88 |  |
| CC(=O)Nc1ccc(-c2cnc(O)cn2)cc1 |  | 63 |  |
| CCNC(=O)OC1CCN(c2nncc3cc(OC)c(OC)cc23)CC1 | 86 | 86 |  |
| Cc1nc(=O)c(C#N)c(NCc2cccnc2)[nH]1 | 66 |  | PDE inhibition [5]: 64 and 65 |
| CC(CCc1ccc(O)cc1)NCCc1ccc(O)c(O)c1 (stereo not given) | 26 |  |  |
| Cc1[nH]c(=O)c(C#N)cc1-c1ccncc1 |  | 58 |  |
| COc1ccc(-c2nc3cc(C4=NNC(=O)CC4C)ccc3[nH]2)cc1 (stereo not given) | 82 |  | PDE inhibition [5]: 81 and 80 |
| CSc1ccc(C(=O)c2[nH]c(=O)[nH]c2C)cc1 |  | 72 | Inotropic effect [6]: 75 |
| CC(C)NC[C@H](O)COc1ccc(O)cc1 | 35 and 34 |  |  |
| Nc1cc(-c2ccncc2)c[nH]c1=O | 57 |  | PDE inhibition [5]: 57 and 56 and 24 |
| CC1CC(O)=NN=C1c1ccc(-n2ccnc2)cc1 (stereo not given) |  | 76 |  |
